{"source": "patent US10551384B2", "about": "“MTOR kinase mutations and methods of use thereof” (RUTGERS, THE STATE UNIVERSITY OF NEW JERSEY, priority 2016, dated 2020)", "system": "TOR2-mTOR L2185G mutant", "assay": "Yeast spotting assay for drug resistance, TOR2-mTOR L2185G", "format": "cell-based, S. cerevisiae", "details": "37° C., with amphotericin B", "excerpt": "FIGS. 4A-C. […] (FIG. 4A) Scheme of a yeast-based screen for drug-resistant mutations in mTOR kinase domain. mTOR kinase domain is amplified by error-prone PCR to generate randomized mutations, which is then recombined in frame into the TOR2-mTOR plasmid by gap-repair in tort-dg cells, and is selected on SC-leucine minus plates. Replica plating is then made onto SC-leucine plates containing DMSO or mTOR kinase inhibitor for selection of drug resistant clones. (FIG. 4B) tor2-dg cells expressing WT or mutant TOR2-mTOR were serially diluted by 10-fold and assayed for sensitivity to different mTOR kinase inhibitors in the presence of amphotericin B. Vector and TOR2 were used as controls. Drug resistant assay was performed at 37° C. in the presence of amphotericin B (except OSI-027). (FIG. 4C) Systematic mutational analysis of L2185 on drug resistance. tort-dg cells expressing WT or mutant TOR2-mTOR carrying all possible mutations at L2185 were serially diluted by 10-fold and tested for sensitivity to different mTOR kinase inhibitors at 37° C.\nTo enhance yeast cell permeability, log phase W303 tort-dg cells were spread evenly on SD-Leu agarose plates. After drying, small sterile filter discs were placed on the surface and 5 μl of indicated mTOR inhibitors or DMSO were applied to each disc with or without adding 5 μl of amphotericin B (10 μM), miconazole (50 μM) or caspofungin (50 μM). Plates were incubated at 37° C. for 3 day. Drug resistance profiles of TOR2-mTOR mutant cells were determined by the spotting assay. For this assay, 10-fold serial dilutions of cells were spotted on SD-leu plates in the presence of indicated mTOR inhibitors with or without amphotericin B (200 nM) and incubated at 37° C. for 3 day."}
{"molecule": "CC(C)n1nc(-c2ccc3oc(N)nc3c2)c2c(N)ncnc21", "note": "[INK128]", "values": [{"measurement": "drug resistance of TOR2-mTOR L2185G mutant yeast", "value": "moderately resistant"}]}
